These results are taken from patent US20050233985A1, “Rsk inhibitors and therapeutic uses thereof” (priority 2003, published 2005).

Entries after “also recorded” stand apart in the source; their conditions may differ.

One assay deals with T1, Rsk2 (Homo sapiens, UniProt P51812, Y707A).
T1 construct: His; made in house; host or cells: Sf9 (baculovirus, Bac-to-Bac)
Put plainly: Rsk kinase ELISA with immobilized substrate and phosphospecific antibodies. In kind it is biochemical.

The target of assay [1] is T2, Focal Adhesion Kinase (FAK) (Homo sapiens, UniProt Q05397).
T2 construct: the catalytic domain of the tyrosine kinase, Focal Adhesion Kinase (FAK); His; made in house; host or cells: Sf9 (baculovirus, Bac-to-Bac)
T2 sequence (Q05397 422-680 limits assumed, species assumed): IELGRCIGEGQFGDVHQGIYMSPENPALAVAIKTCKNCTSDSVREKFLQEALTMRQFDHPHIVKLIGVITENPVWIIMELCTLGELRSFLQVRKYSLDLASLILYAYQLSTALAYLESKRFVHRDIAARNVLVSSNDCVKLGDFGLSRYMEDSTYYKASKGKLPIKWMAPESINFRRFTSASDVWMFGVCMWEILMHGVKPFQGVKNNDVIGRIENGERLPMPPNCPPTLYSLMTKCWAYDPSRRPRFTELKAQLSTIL
Put plainly: FAK tyrosine kinase ELISA. The note with it: purified compounds. It is filed as biochemical.

A further assay has as its target T3, protein kinase A (PKA) (Homo sapiens, UniProt P17612).
T3 construct: made in house; host or cells: bacteria
Put plainly: PKA kinase ELISA. In kind it is biochemical. The note with it: purified compounds. Here is the method: (§1) Kinase Assays. Glutathione-S-transferase (GST)-fusion protein (1 g) containing the sequence -[…] (SEQ ID NO: 3, for serine/threonine kinase assays) or -[…] (SEQ ID NO: 4, for tyrosine kinase assays) was adsorbed in the wells of LumiNunc 96-well polystyrene plates (MaxiSorp surface treatment). The wells were blocked with sterile 3% tryptone in phosphate buffered saline and stored at 4° C. for up to 6 months. Kinase (5 nM) in 70 μl of kinase buffer (5 mM -glycerophosphate pH 7.4, 25 mM HEPES pH 7.4, 1.5 mM DTT, 30 mM MgCl2, 0.15 M NaCl) was dispensed into each well. Compound at indicated concentrations or vehicle was added, and reactions were initiated by the addition of 30 μl of ATP for a final ATP concentration of 10 μM unless indicated otherwise. Reactions were terminated after 10 to 45 min by addition of 75 μl of 500 mM EDTA, pH 7.5. All assays measured the initial velocity of reaction. After extensive washing of wells, polyclonal phosphospecific antibody developed against the phosphopeptide and HRP-conjugated anti-rabbit antibody (211-035-109, Jackson ImmunoResearch Laboratories) were used to detect serine phosphorylation of the substrate. HRP-conjugated anti-phospho-tyrosine antibody (RC20, BD Transduction Laboratories) was used for phospho-tyrosine detection. His-tagged active Rsk and FAK were expressed in Sf9 cells and purified using NiNTA resin (Qiagen). Baculovirus was prepared using the Bac-to-Bac® baculovirus expression system (Invitrogen). PKA was bacterially expressed and activated as described (Anal. Biochem. 245, 115-122 (1997)). Active Msk1 and p70 S6 kinase was purchased from Upstate Biotechnology. Immunoprecipitation and kinase assays were performed as previously described (Poteet-Smith et al., J. Biol. Chem, 274, 22135-22138 (1999) using the immobilized GST-fusion proteins and ELISAs as above.

A further assay concerns the target T4, p70 S6K (Homo sapiens, UniProt P23443).
T4 construct: purchased Upstate Biotechnology
The assay can be described thus: p70 S6K kinase ELISA. It is filed as biochemical. The note with it: purified compounds. Here is the method:
as §1
For orientation: An ELISA detects its analyte on a solid surface through an enzyme-linked reagent.

The target of another assay is T5, Msk1 (Homo sapiens, UniProt O75582).
T5 construct: purchased Upstate Biotechnology
T5 sequence (O75582 whole entry, species assumed): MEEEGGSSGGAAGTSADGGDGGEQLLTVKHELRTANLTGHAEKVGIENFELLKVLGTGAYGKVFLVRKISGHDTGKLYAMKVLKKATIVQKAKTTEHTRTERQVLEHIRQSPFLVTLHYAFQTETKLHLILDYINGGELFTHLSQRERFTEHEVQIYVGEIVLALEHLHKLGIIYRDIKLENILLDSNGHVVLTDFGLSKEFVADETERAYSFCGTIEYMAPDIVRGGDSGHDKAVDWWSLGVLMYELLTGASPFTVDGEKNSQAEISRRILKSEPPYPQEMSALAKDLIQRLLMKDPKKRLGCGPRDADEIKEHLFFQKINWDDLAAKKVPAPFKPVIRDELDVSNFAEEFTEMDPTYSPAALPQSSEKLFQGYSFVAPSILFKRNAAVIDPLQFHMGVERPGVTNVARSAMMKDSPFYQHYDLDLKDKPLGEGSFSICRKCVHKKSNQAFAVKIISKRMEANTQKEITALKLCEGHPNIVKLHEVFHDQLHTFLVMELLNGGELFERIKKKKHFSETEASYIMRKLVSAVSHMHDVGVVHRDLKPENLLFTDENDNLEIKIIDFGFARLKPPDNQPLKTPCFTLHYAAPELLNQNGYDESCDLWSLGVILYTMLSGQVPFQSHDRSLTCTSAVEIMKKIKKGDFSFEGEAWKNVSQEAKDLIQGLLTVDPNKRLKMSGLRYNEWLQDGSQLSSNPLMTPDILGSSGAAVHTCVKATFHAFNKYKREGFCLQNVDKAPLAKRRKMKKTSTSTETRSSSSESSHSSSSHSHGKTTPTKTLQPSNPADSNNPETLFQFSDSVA
Put plainly: Msk1 kinase ELISA. It is filed as biochemical. The conditions noted are these: purified compounds. Here is the method: as §1

The next assay has as its target T6, Rsk2(1-389) (Homo sapiens, UniProt P51812).
T6 construct: a truncation mutant of Rsk2 containing only the NTKD (Rsk2(1-389)); expressed in transfected cells; host or cells: BHK21, EGF-stimulated; anti-HA immunoprecipitate
Put plainly: Kinase assay of immunoprecipitated HA-tagged Rsk2 amino-terminal kinase domain. In kind it is biochemical. The note with it: 2 μM.

Another assay relates to MCF-10A cells. The assay can be described thus: Proliferation of MCF-10A cells (CellTiter-Glo). In kind it is cell-based. The note with it: 50 μM, 44 hrs after treatment. Here is the method: (§2) Cell viability was measured at indicated time points. Proliferation assays were conducted using CellTiter-Glo Luminescent Cell Viability Assay (Promega), performed 44 hrs after treatment for FIGS. 8A &B and at indicated points for FIG. 8C. The data are expressed relative to time 0.
(§3) Cell Culture. For proliferation studies cells were seeded at 2500 to 5000 cells per well in 96 well tissue culture plates in the appropriate medium as described by American Type Culture Collection. After 24 hr, the medium was replaced with medium containing compound or vehicle as indicated. Cell viability was measured at indicated time points using CellTiter-Glo™ assay reagent (Promega) according to manufacturer's protocol. For in vivo inhibition studies, cells were seeded at 2.5×10^5 cells/well in 12 well cell culture clusters. After 24 hr, the cells were serum starved for 24 hr then incubated with compound or vehicle for 3 hr prior to a 30 min PDB stimulation. Cells were lysed as previously described (J. Biol. Chem. 273, 13317-13323 (1998)). The lysates were normalized for total protein, electrophoresed and immunoblotted. For cell imaging, Ha-Ras-transformed NIH/3T3 cells were seeded on LABTEK II chamber slides (Nalge) at a density of 1×10^4 cells/well. After 24 hr, fresh medium was added the indicated compounds or vehicle. Images were taken 48 hr after treatment at a magnification of 20×.
For orientation: Cellular ATP, detected with luciferase, serves as a proxy for viable cell number.

The subject of another assay is LNCaP cells. The assay can be described thus: Proliferation of LNCaP cells (CellTiter-Glo). It is filed as cell-based, human. The conditions noted are these: 50 μM, 44 hrs after treatment. On the procedure: as §2, §3
Assay [2] deals with p140 phosphorylation in MCF-7 cells. Put plainly: PDB-induced p140 phosphorylation in MCF-7 cells (immunoblot). It is filed as cell-based, human. The note with it: 100 μM, 3 hr pre-incubation, 500 nM PDB 30 min. On the procedure: Cells were treated with 500 nM PDB for 30 min prior to lysis. Protein concentration of lysates was measured and lysates were electrophoresed, transferred and immunoblotted.
as §3
(In western blotting, separated proteins are transferred to a membrane and probed.)

T1 sequence (P51812 whole entry Y707A): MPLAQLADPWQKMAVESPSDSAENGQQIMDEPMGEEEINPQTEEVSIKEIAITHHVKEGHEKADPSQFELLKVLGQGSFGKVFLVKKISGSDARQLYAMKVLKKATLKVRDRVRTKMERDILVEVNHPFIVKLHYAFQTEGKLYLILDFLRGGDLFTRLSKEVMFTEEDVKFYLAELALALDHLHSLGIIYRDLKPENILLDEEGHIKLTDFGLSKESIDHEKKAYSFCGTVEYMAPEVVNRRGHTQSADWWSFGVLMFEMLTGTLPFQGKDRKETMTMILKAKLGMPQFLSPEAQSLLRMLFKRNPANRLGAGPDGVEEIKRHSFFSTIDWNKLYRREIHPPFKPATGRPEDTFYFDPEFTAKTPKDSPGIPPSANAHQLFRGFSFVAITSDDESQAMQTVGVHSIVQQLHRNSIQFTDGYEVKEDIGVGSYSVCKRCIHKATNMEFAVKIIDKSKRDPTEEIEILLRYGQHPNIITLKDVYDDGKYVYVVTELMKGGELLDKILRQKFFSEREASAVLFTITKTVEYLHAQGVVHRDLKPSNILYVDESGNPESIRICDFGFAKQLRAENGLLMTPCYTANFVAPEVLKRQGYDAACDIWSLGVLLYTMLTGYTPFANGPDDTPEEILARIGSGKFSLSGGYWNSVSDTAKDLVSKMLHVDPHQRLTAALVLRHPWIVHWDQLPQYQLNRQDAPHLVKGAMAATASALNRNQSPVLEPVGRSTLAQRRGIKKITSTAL
T6 sequence (P51812 1-389): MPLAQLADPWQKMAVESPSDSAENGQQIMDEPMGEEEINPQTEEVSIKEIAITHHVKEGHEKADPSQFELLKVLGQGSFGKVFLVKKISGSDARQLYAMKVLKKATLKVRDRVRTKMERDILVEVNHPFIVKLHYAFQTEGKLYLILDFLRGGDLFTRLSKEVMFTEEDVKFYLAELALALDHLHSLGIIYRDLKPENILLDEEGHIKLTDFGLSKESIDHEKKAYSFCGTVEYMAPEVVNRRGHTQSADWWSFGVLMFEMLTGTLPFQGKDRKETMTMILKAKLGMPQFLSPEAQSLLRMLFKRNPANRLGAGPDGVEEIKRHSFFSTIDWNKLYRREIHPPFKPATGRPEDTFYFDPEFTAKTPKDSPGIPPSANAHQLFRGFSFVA
T4 sequence (P23443 24-525): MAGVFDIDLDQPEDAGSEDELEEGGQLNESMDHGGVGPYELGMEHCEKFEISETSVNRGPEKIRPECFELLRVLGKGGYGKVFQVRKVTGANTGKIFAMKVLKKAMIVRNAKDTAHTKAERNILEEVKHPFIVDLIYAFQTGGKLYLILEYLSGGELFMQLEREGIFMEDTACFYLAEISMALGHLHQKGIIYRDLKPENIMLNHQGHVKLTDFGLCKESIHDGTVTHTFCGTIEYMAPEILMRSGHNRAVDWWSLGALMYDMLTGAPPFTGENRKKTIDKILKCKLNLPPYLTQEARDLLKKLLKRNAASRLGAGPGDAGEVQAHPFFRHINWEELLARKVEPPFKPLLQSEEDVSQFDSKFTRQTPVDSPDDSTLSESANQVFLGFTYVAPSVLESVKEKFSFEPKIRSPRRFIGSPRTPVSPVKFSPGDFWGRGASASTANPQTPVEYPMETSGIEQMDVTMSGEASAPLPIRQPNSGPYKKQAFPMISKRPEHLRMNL

Take `CC(=O)OC1C(C)OC(Oc2c(-c3ccc(O)cc3)oc3cc(O)cc(O)c3c2=O)C(O)C1OC(C)=O` [SL0101-1, kaempferol 3-α-L-(3″,4″-diacetyl) rhamnopyranoside]: on Rsk2 (5 μM inhibitor, 5 nM purified kinases, 30 mins, 10 μM ATP), the “specificity for Rsk compared to p70 S6K and Msk1” value is on record as “specific for inhibition of Rsk activity; also recorded: specifically inhibits”. The “mechanism of Rsk inhibition” value at Rsk2 (with respect to ATP) is “competitive with respect to ATP”. Further, the “inhibition of FAK” value in assay [1] is recorded as “do not inhibit”. Moreover, on protein kinase A (PKA), the “inhibition of Protein Kinase A” value is reported as “do not inhibit”. Further, the “inhibition of p70 S6 kinase” value against p70 S6K was “do not inhibit”. The “inhibition of MSK” value against Msk1 is given as “do not inhibit”. The “inhibition of isolated Rsk2 NTKD” value on Rsk2(1-389) was “potently inhibited; also recorded: inhibits activity”. For the same compound, the “growth of MCF-10A cells” value in the assay on MCF-10A cells is listed as “no effect; also recorded: without preventing the proliferation”. The “proliferation of LNCaP cells” value with LNCaP cells was “completely inhibit”. For the same compound, in assay [2], the “PDB-induced p140 phosphorylation” value is on record as “abrogates”.
